Data set [1] has as its system TNFα release. Description: LPS-induced TNFα release in diluted human blood (ELISA). The class given is cell-based. On the procedure: In vitro, investigations on the influencing of the release of the proinflammatory cytokine TNFα in human blood of various donors diluted 1:5 were carried out. The stimulation was effected using lipopolysaccharide (LPS) from Salmonella abortus equi (10 μg/ml) over the course of 24 h at 37° C. and 5% CO2 in an incubator. The TNFα release was determined using an ELISA, based on antibodies from Pharmingen.
A general note: In an ELISA, binding on a coated surface is turned into a signal by an enzyme label.

The subject of data set [2] is young domestic pigs actively sensitized with an antigen (extract from Ascaris suum). Put plainly: Allergen-induced nasal secretion (rhinorrhea) in Ascaris-sensitized young domestic pigs. The class given is in vivo. As to conditions: for Inhibition of nasal secretion: intranasal Ascaris allergen challenge, pigs. On the procedure:
In vivo investigations were carried out on young domestic pigs actively sensitized with an antigen (extract from Ascaris suum). Three weeks later, they were exposed to allergen challenge, which was carried out by intranasal instillation of the Ascaris extract. This local intranasal allergen challenge leads to a very great increase in the nasal secretion (rhinorrhea). The amount of secretion was determined gravimetrically.

The conditions of data set [3]: cited from earlier work.

One may read the inhibition as the relative decrease from the control value, in per cent.

Regarding `CN1CCCC(n2nc(Cc3ccc(Cl)cc3)c3ccccc3c2=O)CC1` (stereo not drawn) [Azelastine], the “LPS-induced TNFα release (in words)” value in data set [1] (administered alone) was “remains virtually unchanged”. Also, the inhibition at 10 µM in data set [1] (azelastine 10 μmol/l, human blood diluted 1:5, LPS 10 μg/ml, 24 h) is 2%. The “Inhibition of nasal secretion” value in data set [2] (azelastine 10 μg/nostril) is on record as 15%. In data set [2] (used alone at 10 or 20 μg/nostril), the “Inhibition of the allergically induced nasal hypersecretion (in words)” value is on record as “only marginal inhibition”.
For the compound `CCOC(=O)O[C@]1(C(=O)OCCl)CC[C@H]2[C@@H]3CCC4=CC(=O)C=C[C@]4(C)[C@H]3[C@@H](O)C[C@@]21C` [Loteprednol etabonate], the Water solubility result in data set [3] is listed as “virtually water-insoluble”.
As for `CCOC(=O)O[C@]1(C(=O)OCCl)CC[C@H]2[C@@H]3CCC4=CC(=O)C=C[C@]4(C)[C@H]3[C@@H](O)C[C@@]21C` [Loteprednol], 0.001 µM produced 1% inhibition in data set [1] (loteprednol 0.001 μmol/l, human blood diluted 1:5, LPS 10 μg/ml, 24 h). This compound also gave an inhibition at 0.01 µM in data set [1] (loteprednol 0.01 μmol/l, human blood diluted 1:5, LPS 10 μg/ml, 24 h) of 2%. Testing at 0.03 µM in data set [1] (loteprednol 0.03 μmol/l, human blood diluted 1:5, LPS 10 μg/ml, 24 h) gave an inhibition of 8%. In addition, the “Inhibition of nasal secretion” value in data set [2] (loteprednol 20 μg/nostril) stood at 8%.

The values are drawn from US7022687B1, “Combination of loteprednol and antihistamines” (Asta Medica AG, priority 1999, dated 2006).
